According to Sander's compilation of Henry's law constants (doi:10.1002/etc.5620180906):

Experiment: Henry solubility constant Hcp at 298.15 K (mol/(m3 Pa))
Conditions: reference: Bamford et al. (1999a)

Structure (SMILES) | Henry solubility constant Hcp
Cc1ccc2ccccc2c1 [2-methylnaphthalene] | 0.019
c1cc2c3c(cccc3c1)CC2 [acenaphthene] | 0.054
C1=Cc2cccc3cccc1c23 [acenaphthylene] | 0.079
c1ccc2c(c1)Cc1c-2ccc2ccccc12 [benzo[a]fluorene] | 0.37
c1ccc2c(c1)-c1cccc3cccc-2c13 [benzo[jk]fluorene] | 0.51

The remaining lines, values ahead:

Henry solubility constant Hcp | Structure (SMILES)
0.021 | Cc1cccc2ccccc12 [1-methylnaphthalene]
0.2 | Cc1cccc2c1ccc1ccccc12 [1-methylphenanthrene]
0.1 | c1ccc2c(c1)Cc1ccccc1-2 [2,3-benzindene]
0.18 | c1ccc2cc3ccccc3cc2c1 [anthracene]
1.9 | c1ccc2c(c1)ccc1c3ccccc3ccc21 [chrysene]
0.23 | c1ccc2c(c1)ccc1ccccc12 [phenanthrene]
